US20200316213A1, “MACROMOLECULAR PLATFORM FOR TARGETING SCAVENGER RECEPTOR A1” (THE UNITED STATES OF AMERICA, AS REPRESENTED BY THE …, priority 2017, published 2020)

Key:
[1] = male, Sprague-Dawley, rat, in vivo, iv, 10 mg/kg
in vivo = conditions: male, Sprague-Dawley, rat, iv, 10 mg/kg
scavenger receptor A1 = biological target: T1, scavenger receptor A1 (Mus musculus, UniProt P30204); test: Competitive inhibition of polymer-488 cell uptake by poly I / poly C in Raw 264.7 macrophages; type: cell-based; conditions: for inhibition of scavenger receptor interaction of polymer-488 (fluorescence): various concentrations of polymer-488 with inhibitor, Raw 264.7 macrophages (FIG. 3); for inhibition of polymer-488 fluorescence: various inhibitor concentrations, polymer-488 concentration constant, 37° C. 3 hours (FIG. 4)
T1 construct: endogenous in cells; host or cells: Raw 264.7 macrophages
T1 sequence (P30204 1-458): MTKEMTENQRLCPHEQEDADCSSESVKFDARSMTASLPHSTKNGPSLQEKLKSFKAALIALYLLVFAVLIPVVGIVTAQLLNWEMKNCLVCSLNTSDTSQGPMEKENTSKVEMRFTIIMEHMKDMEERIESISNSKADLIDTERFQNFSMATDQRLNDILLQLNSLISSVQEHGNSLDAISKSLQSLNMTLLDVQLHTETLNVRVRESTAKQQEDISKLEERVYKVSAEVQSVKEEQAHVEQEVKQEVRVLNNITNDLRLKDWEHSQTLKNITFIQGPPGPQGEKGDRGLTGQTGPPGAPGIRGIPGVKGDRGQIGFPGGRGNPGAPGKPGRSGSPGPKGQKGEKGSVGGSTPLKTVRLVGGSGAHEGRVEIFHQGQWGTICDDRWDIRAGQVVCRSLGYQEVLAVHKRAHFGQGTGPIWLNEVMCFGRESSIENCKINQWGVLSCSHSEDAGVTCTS
Protocol: The fluorescently labelled poly(L-lysine succinylated) was also tested for cell uptake in a macrophage cell line Raw 264.7 in the presence of competitive inhibitors and relevant controls. […] At higher concentrations of polymer-488, fluorescence is seen due to competing off the poly I.
In a follow up study, cells were treated with various concentrations of either poly I or poly C while polymer-488 concentration remained constant. In this study, Raw 264.7 cells were incubated overnight at 400,000 cells/mL. The cells were treated with various concentrations of polymer-488 and either 200 μg/mL poly I, 200 μg/mL poly C, or no inhibitor. The cells were incubated at 37° C. for 3 hours, washed 3 times with media, and fluorescence measured.

Compound	Tlast [1] [h]	Tmax (in vivo) [h]	Cmax (in vivo; Cmax) [ng/g]	inhibition of scavenger receptor interaction of polymer-488 (fluorescence) (scavenger receptor A1)	inhibition of polymer-488 fluorescence (scavenger receptor A1)
Nc1nc(=O)n([C@@H]2CS[C@H](CO)O2)cc1F [Emtricitabine, emtricitabine]	96	4	86.7		
polycytidylic acid [poly C]				not with poly C	virtually no inhibition of fluorescence
polyinosinic acid [poly I]				inhibition of scavenger receptor interaction	dose-dependent inhibition
